According to patent US9944607B2, “Thiohydantoin derivatives and uses thereof” (Whitehead Institute for Biomedical Research, priority 2012, dated 2018):
In brackets after ≈: the same amount, converted by molar mass. Read-outs that look alike come from different tables or passages of the source.

Columns and labels:
Candida albicans CaCi-17 = experiment: Primary assay: C. albicans CaCi-17 growth inhibition (Alamar Blue); type: cell-based; conditions: for IC50: Candida albicans
[1] = test system: Saccharomyces cerevisiae W303; experiment: Secondary S. cerevisiae inhibition in glycerol media (OD600); type: cell-based; conditions: for IC50: Saccharomyces cerevisiae
From the text: Cell Lines. • Candida albicans CaCi-2; a drug-resistant clinical isolate was provided by the Whitehead Institute (Redding et al., Clin. Infect. Dis. 1994, 18(2):240-2). This strain was used for the primary assay. • Candida albicans CaCi-17; a strongly drug-resistant clinical isolate was provided by the Whitehead Institute (Redding et al., Clin. Infect. Dis. 1994, 18(2):240-2). This strain was used for the primary assay • Saccharyomyces cerevisiae W303-1a (ATCC 208352); a well-characterized Saccharomyces strain used for determination of glycolytic vs. respiratory metabolism, as well as in the mitochondrial disruption assay. • Candida glabrata (ATCC 2001); used for determination of glycolytic vs. respiratory metabolism. • NIH-3T3 mammalian fibroblasts (ATCC; CRL no.1658); used for mammalian toxicity assays. […]
Saccharomyces, while not a major human pathogen, is a useful lab model with well-developed genetic tools available. Candida glabrata is an increasingly prominent clinical problem for immune-compromised patients but with fewer genetic tools available with which to study it. These organisms can utilize alternative metabolic pathways to support growth and survival depending on the carbon source. By comparing the concentration-dependent inhibition of yeast growth in glycerol relative to glucose media, a quantitative assessment of a compound's ability to disrupt respiration can be determined. […].
Clear, flat bottom, black 384-well plates (Corning Catalog no. 3712BC; Lot no. 35808016); Amphotericin B (Sigma Catalog no. A2411) 15 mM stock solution in DMSO; Pen/Strep (Gibco Catalog no. 10378-016; Lot no21040170) 100× in PBS.
Synthetic defined growth medium. Complete Supplement Mixture; (Sunrise Science, Catalog No. 1001-100); Yeast Nitrogen Base without ammonium sulfate (MP Biomedicals, Catalog No. 4027-012); Glycerol (Sigma Catalog No. G-9012). • Prepare medium by dissolving 0.79 g Complete Supplement Mixture and 1.7 g Yeast Nitrogen Base in 800 mL water. • Add 20 mL of glycerol. Adjust final volume to 1000 mL. Filter sterilize.
Fungal Inoculum. Test Strains: C. glabrata (ATCC 2001) and Saccharomyces cerevisiae W303. • Inoculate 100 μL of yeast from cryopreserved stock into 250 mL shaker flask containing 20 mL growth medium. Shake at 30° C. overnight (about 16 hours). • Read OD 600 of 1 mL of fungal culture in a cuvette using a standard optical density reader (Eppendorf BioPhotometer Plus), with growth medium as a background blank. • Dilute to desired volume of fungal inoculum to produce an OD600 reading of 0.005 (S. cerevisiae) or 0.004 (C. glabrata).
Procedures • Use a Thermo Combi nL to dispense 20 μL/well of assay media into all wells. • Add 2 μL of Amphotericin B to control wells. • Pin 100 nL of test compound from compound plates into assay plates using a CyBi-Well pin tool. • Dispense 20 μL/well of culture into the assay media in all wells. • Incubate the plates in a humidified (90% humidity) Liconic incubator at 37° C. without agitation for 48 hours. • Shake plates briefly. • Read OD600 of wells on a standard plate reader as measure of relative fungal growth. Envision (Perkin Elmer) plate reader settings: Ex Photometric 600, Top read. Secondary Glucose Assay Protocol (AID 623971, 623967, 624013, 624025) Materials and Reagents

Candida albicans CaCi-2 = experiment: Primary assay: C. albicans CaCi-2 growth inhibition (Alamar Blue); type: cell-based; conditions: for IC50: Candida albicans
[2] = Solubility in PBS pH 7.4 with 1% DMSO; conditions: for solubility at 24 h: pH 7.4, aqueous buffer, kinetic from dmso stock; for PBS Solubility: PBS pH 7.4 with 1% DMSO, 24 hours, room temperature
Summary of the method: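 Compounds at 100 μM in duplicate in PBS pH 7.4 containing 1% DMSO, shaken 24 hours at room temperature. Concentration measured by UPLC-MS with SIR detection, fitted to a two-point calibration from matching 100% DMSO samples.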

[3] = test system: NIH-3T3 mammalian fibroblasts; experiment: Counterscreen mammalian cell toxicity assay (Alamar Blue); type: cell-based, murine; conditions: for IC50: Mus musculus
Summary of the method: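 Quiescent NIH-3T3 fibroblasts, cultured overnight, exposed to 100 nL pinned compound for 48 h at 37° C, 5% CO2. Alamar Blue added to 1:200 final, 2-3 h further incubation; fluorescence (RFU) read as relative cell growth.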

[4] = phosphate buffered saline with 1% DMSO

With `CCOC(=O)N1C(=O)C2(CCCCC2)N(c2ccc(F)cc2)C1=S` [CID 56604860, Ethyl 1-(4-fluorophenyl)-4-oxo-2-thioxo-1,3-diazaspiro[4.5]decane-3-carboxylate] as the compound, how does the IC50 (Candida albicans CaCi-17; CACI17, read-out: C. albicans CaCi-17 growth inhibition IC50) read?
The IC50 was 1 µM.

What about the “Fold Selective (Anti-target IC50/Target IC50), fibroblast toxicity vs CaCi-17 growth inhibition” value (Candida albicans CaCi-17; Table 12) of the same compound?
The value was >37x.

And the “Reduction in potency when glucose is available instead of glycerol, S. cerevisiae” value [1]?
Its value is “greater than 250 fold”.

What about the IC50 ([1]; W303, read-out: Growth inhibition of S. cerevisiae on glycerol IC50) of the same compound?
Its IC50 is 0.004 µM.

What about the “Fold Selective (Glucose IC50/Glycerol IC50), S. cerevisiae” value ([1]; Table 13) of the same compound?
Its value is >750x.

And the “Fold Selective (Anti-target IC50/Target IC50), fibroblast toxicity vs CaCi-2 growth inhibition” value (Candida albicans CaCi-2; Table 12)?
The value was >650x.

And the solubility at 24 h [2, 4]?
The solubility at 24 h was 1.1 µM (≈ 0.385 µg/mL).

And the IC50 ([3]; NIH3T3, read-out: Murine 3T3 fibroblasts growth inhibition (fibroblast toxicity) IC50)?
Its IC50 is > 26 µM.

What about the “Toxicity against mammalian fibroblasts (in words)” value ([3]; at concentrations up to 26 μM) of the same compound?
Its value is “no apparent toxicity”.

For `CCOC(=O)N1C(=O)C2(CCCCC2)N(c2ccc(C)cc2)C1=S` [compound 3889161], which IC50 (Candida albicans CaCi-17; CACI17, 48 h, read-out: Growth Inhibition Activity, IC50 (μM), C. albicans (n = 3) CaCi-17) is on record?
Its IC50 is 8.5 µM.

And the IC50 ([1]; W303, 48 h, read-out: Growth Inhibition Activity, IC50 (μM), S. cerevisiae (n = 3) On glycerol)?
The IC50 was 0.011 µM.

What about the IC50 (Candida albicans CaCi-2; CACI2, 48 h, read-out: Growth Inhibition Activity, IC50 (μM), C. albicans (n = 3) CaCi-2) of the same compound?
The IC50 was 0.3 µM.

And the “PBS Solubility” value ([2]; Table 4)?
The value was <1.0 µM.

And the “PBS Solubility” value ([2]; Table 5)?
The value was <1.0 µM.

What about the “PBS Solubility” value ([2]; Table 6) of the same compound?
The value was <1.0 µM.

And the “PBS Solubility” value ([2]; Table 7)?
The value was <1.0 µM.

And the solubility at 24 h [2, 4]?
The solubility at 24 h was < 1 µM.

What about the “Growth Inhibition Activity, IC50 (μM), 3T3 Fibroblasts (n = 1)” value (from here on “Growth Inhibition Activity, IC50 (μM)”) ([3]; Table 3, n = 1, 48 hours, tested up to 26 μM) of the same compound?
The value was “Inactive”.

And the “Growth Inhibition Activity, IC50 (μM)” value ([3]; Table 4, n = 1, 48 hours, tested up to 26 μM)?
Its value is “Inactive”.

And the “Growth Inhibition Activity, IC50 (μM)” value ([3]; Table 5, n = 1, 48 hours, tested up to 26 μM)?
The value was “Inactive”.

What about the “Growth Inhibition Activity, IC50 (μM)” value ([3]; Table 6, n = 1, 48 hours, tested up to 26 μM) of the same compound?
Its value is “Inactive”.

What about the “Growth Inhibition Activity, IC50 (μM)” value ([3]; Table 7, n = 1, 48 hours, tested up to 26 μM) of the same compound?
Its value is “Inactive”.

Which results are given for `CCOC(=O)N1C(=O)C2(CCCCC2)N(c2cccc(C)c2)C1=S` [compound 56604823]?
IC50 (Candida albicans CaCi-17; CACI17, Table 4, n = 3, 48 hours, tested up to 26 μM, read-out: Growth Inhibition Activity, IC50 (μM), C. albicans (n = 3) CaCi-17): 8.2 µM; IC50 ([1]; W303, Table 8, n = 3, glycerol media, 48 hours, tested up to 3 μM, read-out: Growth Inhibition Activity, IC50 (μM), S. cerevisiae (n = 3) On glycerol): 0.019 µM; IC50 (Candida albicans CaCi-2; CACI2, Table 4, n = 3, 48 hours, tested up to 26 μM, read-out: Growth Inhibition Activity, IC50 (μM), C. albicans (n = 3) CaCi-2): 0.2 µM; solubility at 24 h [2, 4]: 2.6 µM (≈ 0.901 µg/mL); IC50 ([3]; NIH3T3, read-out: Growth Inhibition Activity, IC50 (μM), 3T3 Fibroblasts (n = 1), Table 4, n = 1, 48 hours, tested up to 26 μM): 24.2 µM

For `C/C=C/C1[C@H]2C[C@@H](C)CC[C@@H]2C(C)=C[C@H]1C(=O)c1c(O)c(-c2ccc(O)cc2)c[nH]c1=O` (some centres unmarked) [ilicicolin H, reference compound], which IC50 (Candida albicans CaCi-17; CACI17, Tables 9, 10, 12, AID 623897, read-out: C. albicans CaCi-17 growth inhibition IC50) is on record?
Its IC50 is > 3 µM.

What about the IC50 ([1]; W303, figure legends and Tables 9, 10, 13, AID 623969, read-out: Growth inhibition of S. cerevisiae on glycerol IC50) of the same compound?
Its IC50 is 0.03 µM.

What about the IC50 (Candida albicans CaCi-2; CACI2, Tables 9, 10, 12, AID 623899, read-out: C. albicans CaCi-2 growth inhibition IC50) of the same compound?
The IC50 was > 3 µM.

And the solubility at 24 h [2]?
The solubility at 24 h was < 1 µM.

And the IC50 ([3]; NIH3T3, Tables 9, 10, 12, AID 602394, read-out: Murine 3T3 fibroblasts growth inhibition (fibroblast toxicity) IC50)?
Its IC50 is 10 µM.
